Test results: patent publication US4283394A, “Cytotoxic nucleoside-corticosteroid phosphodiesters” (priority 1979, dated 1981)

Assays:
[1] = system: mouse leukemia L-1210 cells; experiment: Antiproliferative activity in vitro, viability of L-1210 cells in culture; format: cell-based; details: for antiproliferative activity compared with ara-CMP and ara-C: 72 h; for IC50: Mus musculus, L1210, 72 h, read-out: Concentration (μM) for 50 percent loss of viability at 72 hours (ED50)
Protocol: The antiproliferative activity of the conjugates, ara-C, ara-CMP and the steroids was determined by measuring their effects against mouse leukemia L-1210 cells in culture. The assay was performed in test tubes without agitation according to the procedure described by Hong et al. in J. Med. Chem. 16: 139 (1973). After 24, 48 and 72 h, viable cell counts were performed on the cultures which had been incubated with compounds in various concentrations and the concentration of each compound required to produce a 50 percent inhibition of growth (ED50) after 72 h was determined by interpolation using the method described by Tritsch et al. in Cancer Biochem. Biophys. 2: 87 (1977).

[2] = system: intracerebrally implanted L-1210; experiment: Antitumor activity against intracerebrally (i.c.) implanted L-1210 in mice; format: in vivo; details: 50 mg/kg/day × 5 i.p.; for Survivors on day 35: groups of 8 mice; for Percent T/C: values as of 35th day
Protocol: Effects of the conjugate on i.c. implanted L-1210 in mice were also studied. A mouse (C3 D2 F1 /J, female, avg. wt. 20 g) was anesthesized with diethyl ether, the right parietal scalp was washed with 70 percent ethanol, a 27 G 1/2 needle with a guard placed on the outside of the barrel 1.5 mm from the top of the bevel, was inserted through the skull and 1×10^5 cells in 0.05 ml suspension were inoculated into the mouse. The conjugate in 0.9 percent NaCl (0.5 ml) was administered intraperitoneally once daily. Treatment began 24 h after implantation and continued for 5 consecutive days. Control animals received a 0.5 ml injection of saline. Testing was followed as described in the NCI protocol and evaluated by recording the survival time according to the formula appearing in protocol 11.

[3] = system: crude wheat germ acid phosphatase; experiment: Enzymatic cleavage by acid phosphatase; format: in vitro ADME; details: pH 4.8, 25° C., 24 h; for percent hydrolyzed by acid phosphatase: 3 mg enzyme
Protocol: (§1) Enzymatic cleavage of the phosphodiester bond of the conjugates was studied by incubating the conjugates (5 μmol) with various enzymes (1.5-3 mg) in appropriate buffer and with plasma (final volume 0.5 ml). An aliquot (200 μl) of the 24 h incubation mixtures was streaked on Whatman 3 MM paper (23×57 cm) with the authentic markers and the paper was developed in Solvent A. The bands were characterized and analyzed semi-quantitatively by UV estimation of the chromatographs. […] The conjugates also remained 60-85 percent intact during the incubation with baboon plasma at 37° C. for 24 h. From the results of these tests, conjugates of this type appear capable of serving as sustained release froms of the parent steroid and nucleoside components thereof.
The conjugate (5 μmol) was incubated with 0.15 M NaOAc, pH 4.8 (0.05 ml) and crude wheat germ acid phosphatase (3 mg., Sigma Chemical Co.) in 0.45 ml. of H2 O at 25° C. for 24 h. Pred-p-ara-C (I) was 86 percent hydrolyzed, the products being pred-p-ara-C (8 percent), ara-CMP (5 percent), ara-C (42 percent) and prednisolone (45 percent). Prednisone-p-ara-C (II) was 88 percent hydrolyzed, the products being prednisone-p-ara-C (7 percent), ara-CMP (4 percent), ara-C (43 percent) and prednisone (46 percent).

[4] = system: i.p. implanted L-1210 leukemia; experiment: Antitumor activity against i.p. implanted L-1210 leukemia in mice; format: in vivo; details: for response vs control in vivo at 25 mg/kg: read-out: Percent T/C (mean survival days treated/control × 100), 25 mg/kg/day × 5 i.p.; for response vs control in vivo at 50 mg/kg: read-out: Percent T/C (mean survival days treated/control × 100), 50 mg/kg/day × 5 i.p.; for response vs control in vivo at 75 mg/kg: read-out: Percent T/C (mean survival days treated/control × 100), 75 mg/kg/day × 5 i.p.; for response vs control in vivo at 100 mg/kg: read-out: Percent T/C (mean survival days treated/control × 100), 100 mg/kg/day × 5 i.p.; for ascitic fluid at the end of the dosage period (5th day) / day on which mice started to accumulate ascitic fluid: doses between 25 and 75 mg/kg/day
Protocol: The ascites cell form of L-1210 leukemia, grown in C3 D2 F1 /J female mice (supplied by Jackson Labs) were employed. The assay was performed according to National Cancer Institute (NCI) protocol 1.100 described by R. I. Gerau et al., Cancer Chemother. Rep. (Part 3) 3: (2): 7, 47 (1972) with a slight modification. Intraperitoneal implantation of 1×10^6 cells in 0.5-ml suspension to the control and the treated groups (each group comprised 8 C3 D2 F1 /J female mice, average wt 20 g) was carried out using donor mice (DBA/2Ha, supplied by Roswell Park Memorial Institute) bearing 3 day tumor growths. Compounds were dissolved in 0.9 percent NaCl and a 0.5 ml dose was administered intraperitoneally once daily. Treatment began 24 h after implantation and continued for 5 consecutive days. Control animals received a 0.5 ml injection of saline. Testing was followed as described in the NCI protocol and evaluated by recording the survival time according to the formula appearing in protocol 11.

[5] = Incubation with fresh baboon plasma; format: in vitro ADME; details: 37° C.; for metabolised at 24 h: 0.5 ml fresh baboon plasma, read-out: percent hydrolyzed in plasma; for remaining at 24 h: read-out: remaining conjugate among products
Protocol: as §1
The conjugate (5 μmol) was incubated with 0.5 ml of fresh baboon plasma at 37° C. for 24 h. 39 percent of the pred-p-ara-C (I) was hydrolyzed, the products being pred-p-ara-C (44 percent), ara-UMP (7 percent), ara-U (21 percent) and prednisolone (28 percent). Only 15 percent of the prednisone-p-ara-C (II) was hydrolyzed, the products being prednisone-p-ara-C (74 percent), ara-UMP (13 percent) and prednisone (13 percent).

[6] = system: phosphodiesterase I from Crotalus adamenteus; experiment: Enzymatic cleavage of the phosphodiester bond by phosphodiesterase I; format: in vitro ADME; details: pH 8.8, 24 h, 37° C.; for hydrolysis by phosphodiesterase I: 5 μmol conjugate, 1.5 mg enzyme
Protocol: as §1
The conjugate (5 μmol) was incubated with 1 M Tris-HCl, pH 8.8 (0.05 ml) and purified phosphodiesterase I from Crotalus adamenteus (1.5 mg., Sigma Chemical Co.) in 0.45 ml. of H2 O for 24 h at 37° C.

[7] = system: crude Crotalus adamenteus venom; format: in vitro ADME; details: 2.5 mg crude venom, 24 h, 37° C.
Protocol: as §1

| Structure (SMILES) | antiproliferative activity compared with ara-CMP and ara-C [1] | IC50 [1] [µM] | Mean Survival Days [2] [days] | body weight lost by day 11 [2] | Survivors on day 35 [2] | Percent T/C [2] [%] | percent hydrolyzed by acid phosphatase [3] [%] | product ara-C [3] [%] | product ara-CMP [3] [%] | product steroid (prednisolone or prednisone) [3] [%] | remaining conjugate among products [3] [%] | Mean Survival Days, Treated ([4]; 25 mg/kg/day × 5 i.p.) [days] | Percent T/C (mean survival days treated/control × 100) ([4]; 25 mg/kg/day × 5 i.p.) [%] | Mean Survival Days, Treated ([4]; 50 mg/kg/day × 5 i.p.) [days] | Mean Survival Days, Treated ([4]; 75 mg/kg/day × 5 i.p.) [days] | Mean Survival Days, Treated ([4]; 100 mg/kg/day × 5 i.p.) [days] | response vs control in vivo at 25 mg/kg ([4]; Mus musculus, L1210, ip) [%] | response vs control in vivo at 50 mg/kg ([4]; Mus musculus, L1210, ip) [%] | response vs control in vivo at 75 mg/kg ([4]; Mus musculus, L1210, ip) [%] | response vs control in vivo at 100 mg/kg ([4]; Mus musculus, L1210, ip) [%] | further results |
| --- | --- | --- | --- | --- | --- | --- | --- | --- | --- | --- | --- | --- | --- | --- | --- | --- | --- | --- | --- | --- | --- |
| C[C@]12C=CC(=O)C=C1CC[C@@H]1[C@@H]2[C@@H](O)C[C@@]2(C)[C@H]1CC[C@]2(O)C(=O)CO[P+]([O-])(O)OC[C@H]1O[C@@H](n2ccc(N)nc2=O)[C@@H](O)[C@@H]1O (stereo partly drawn) [Pred-p-ara-C (I), 5'-(Prednisolone-21-phosphoryl)-1-β-D-arabinofuranosylcytosine] | activity comparable to ara-CMP | 0.05 | 18.13 | about 4 g | 1 | 201.4 | 86 | 42 | 5 | 45 | 8 | 14.63 | 154 | 19.13 | 16.88 | 11.74 | 154 | 201 | 178 | 136 | weight gained over original weight (20 g) by day 20 [2]: about 1 g; Percent T/C ([2]; listed as I): 201%; Mean Survival Days, Treated ([4]; 40 mg/kg/day × 5 i.p.): 15.25 days; response vs control in vivo at 40 mg/kg ([4]; Mus musculus, L1210, ip, read-out: Percent T/C (mean survival days treated/control × 100), 40 mg/kg/day × 5 i.p.): 174%; ascitic fluid at the end of the dosage period (5th day) [4]: no ascitic fluid; day on which mice started to accumulate ascitic fluid [4]: 15 days; metabolised at 24 h [5]: 39%; product ara-U ([5]; baboon plasma, 24 h): 21%; product ara-UMP ([5]; baboon plasma, 24 h): 7%; product steroid (prednisolone or prednisone) ([5]; baboon plasma, 24 h): 28%; remaining at 24 h ([5]; baboon plasma): 44%; hydrolysis by phosphodiesterase I [6]: hydrolyzed completely; product ara-C [6]: 10%; product ara-CMP [6]: 40%; product prednisolone or prednisone [6]: 50%; hydrolysis by crude snake venom [7]: hydrolyzed completely; product ara-C [7]: 50%; product steroid [7]: 50% |
| C[C@]12C=CC(=O)C=C1CC[C@@H]1[C@@H]2C(=O)C[C@@]2(C)[C@H]1CC[C@]2(O)C(=O)CO[P+]([O-])(O)OC[C@H]1O[C@@H](n2ccc(N)nc2=O)[C@@H](O)[C@@H]1O (stereo partly drawn) [Prednisone-p-ara-C (II), 5'-(Prednisone-21-phosphoryl)-1-β-D-arabinofuranosylcytosine] | less active than both ara-CMP and ara-C | 0.5 | 16.50 | about 4 g | 1 | 183.3 | 88 | 43 | 4 | 46 | 7 | 14.63 | 154 | 18.13 | 14.50 | 10.88 | 154 | 210 | 153 | 124 | Percent T/C ([2]; listed as II): 183%; Percent T/C (mean survival days treated/control × 100) ([4]; 50 mg/kg/day × 5 i.p.): 210%; Percent T/C (mean survival days treated/control × 100) ([4]; 100 mg/kg/day × 5 i.p.): 124%; Mean Survival Days, Treated ([4]; 200 mg/kg/day × 5 i.p.): 9.13 days; response vs control in vivo at 200 mg/kg ([4]; Mus musculus, L1210, ip, read-out: Percent T/C (mean survival days treated/control × 100), 200 mg/kg/day × 5 i.p.): 104%; ascitic fluid at the end of the dosage period (5th day) [4]: no ascitic fluid; day on which mice started to accumulate ascitic fluid [4]: 15 days; metabolised at 24 h [5]: 15%; product ara-UMP ([5]; baboon plasma, 24 h): 13%; product steroid (prednisolone or prednisone) ([5]; baboon plasma, 24 h): 13%; remaining at 24 h ([5]; baboon plasma): 74%; hydrolysis by phosphodiesterase I [6]: hydrolyzed completely; product ara-C [6]: 10%; product ara-CMP [6]: 40%; product prednisolone or prednisone [6]: 50%; hydrolysis by crude snake venom [7]: hydrolyzed completely; product ara-C [7]: 50%; product steroid [7]: 50% |
